The source made the active and inactive calls. No cut-off for these calls is given here.
What was measured:
[1] = test system: Rhynchophorus ferrugineus; assay: Pesticidal activity against adult Rhynchophorus ferrugineus (red palm weevil) assessed as mortality at 0.5 ppm, po at 114 hr post-treatment relative to control; format: functional
[2] = test system: Rhynchophorus ferrugineus; assay: Pesticidal activity against Rhynchophorus ferrugineus (red palm weevil) larvae assessed as mortality at 6 ppm, po at 18 hr post-treatment relative to control; format: functional
[3] = test system: Rhynchophorus ferrugineus; assay: Pesticidal activity against Rhynchophorus ferrugineus (red palm weevil) cocoon assessed as mortality at 20 ppm administered by dipping for 3 min measured at 48 hr post-treatment relative to control; format: functional
[4] = test system: Rhynchophorus ferrugineus; assay: Pesticidal activity against adult Rhynchophorus ferrugineus (red palm weevil) assessed as mortality at 1.5 ppm, po at 48 hr post-treatment relative to control; format: functional
[5] = test system: Rhynchophorus ferrugineus; assay: Pesticidal activity against Rhynchophorus ferrugineus (red palm weevil) cocoon assessed as mortality at 20 ppm administered by dipping for 3 min measured at 90 hr post-treatment relative to control; format: functional
[6] = test system: Rhynchophorus ferrugineus; assay: Pesticidal activity against adult Rhynchophorus ferrugineus (red palm weevil) assessed as time required for reversible knockdown at 3.5 ml/l administered topically; format: functional
[7] = test system: Rhynchophorus ferrugineus; assay: Pesticidal activity against Rhynchophorus ferrugineus (red palm weevil) larvae assessed as mortality at 1.5 ppm, po at 72 hr post-treatment relative to control; format: functional
[8] = test system: Rhynchophorus ferrugineus; assay: Pesticidal activity against Rhynchophorus ferrugineus (red palm weevil) cocoon assessed as mortality at 4 ppm administered by dipping for 3 min measured at 18 hr post-treatment relative to control; format: functional
[9] = test system: Rhynchophorus ferrugineus; assay: Pesticidal activity against Rhynchophorus ferrugineus (red palm weevil) cocoon assessed as mortality at 1 ppm administered by dipping for 3 min measured at 48 hr post-treatment relative to control; format: functional
[10] = test system: Rhynchophorus ferrugineus; assay: Pesticidal activity against Rhynchophorus ferrugineus (red palm weevil) larvae assessed as mortality at 500 ppm administered topically at 72 hr post-treatment; format: functional
[11] = test system: Rhynchophorus ferrugineus; assay: Contact toxicity against Rhynchophorus ferrugineus (red palm weevil) adults assessed as time required for 100% mortality at 3.5 ml/l for 5 min; format: functional
[12] = test system: Rhynchophorus ferrugineus; assay: Pesticidal activity against Rhynchophorus ferrugineus (red palm weevil) larvae assessed as mortality at 4 ppm, po at 24 hr post-treatment relative to control; format: functional
[13] = test system: Rhynchophorus ferrugineus; assay: Pesticidal activity against Rhynchophorus ferrugineus (red palm weevil) larvae assessed as mortality at 4 ppm, po at 114 hr post-treatment relative to control; format: functional
[14] = test system: Rhynchophorus ferrugineus; assay: Pesticidal activity against Rhynchophorus ferrugineus (red palm weevil) cocoon assessed as mortality at 2 ppm administered by dipping for 3 min measured at 18 hr post-treatment relative to control; format: functional
[15] = test system: Rhynchophorus ferrugineus; assay: Contact toxicity against Rhynchophorus ferrugineus (red palm weevil) adults assessed as time required for 50% reversible knockdown at 2.5 ml/l for 2 min; format: functional
[16] = test system: Rhynchophorus ferrugineus; assay: Pesticidal activity against adult Rhynchophorus ferrugineus (red palm weevil) assessed as mortality at 500 ppm administered topically at 48 hr post-treatment; format: functional
[17] = test system: Rhynchophorus ferrugineus; assay: Pesticidal activity against Rhynchophorus ferrugineus (red palm weevil) larvae assessed as mortality at 500 ppm administered topically at 48 hr post-treatment; format: functional
[18] = test system: Rhynchophorus ferrugineus; assay: Contact toxicity against Rhynchophorus ferrugineus (red palm weevil) adults assessed as time required for 100% reversible knockdown at 1.5 ml/l for 5 min; format: functional
[19] = test system: Rhynchophorus ferrugineus; assay: Pesticidal activity against Rhynchophorus ferrugineus (red palm weevil) larvae assessed as mortality at 1.5 ppm, po at 114 hr post-treatment relative to control; format: functional
[20] = test system: Rhynchophorus ferrugineus; assay: Pesticidal activity against Rhynchophorus ferrugineus (red palm weevil) larvae assessed as mortality at 2 ppm, po at 18 hr post-treatment relative to control; format: functional
[21] = test system: Rhynchophorus ferrugineus; assay: Contact toxicity against Rhynchophorus ferrugineus (red palm weevil) adults assessed as time required for 100% mortality at 2.5 ml/l for 5 min; format: functional
[22] = test system: Rhynchophorus ferrugineus; assay: Pesticidal activity against Rhynchophorus ferrugineus (red palm weevil) cocoon assessed as mortality at 0.5 ppm administered by dipping for 3 min measured at 72 hr post-treatment relative to control; format: functional
[23] = test system: Rhynchophorus ferrugineus; assay: Pesticidal activity against adult Rhynchophorus ferrugineus (red palm weevil) assessed as mortality at 100 ppm administered topically at 48 hr post-treatment; format: functional
[24] = test system: Rhynchophorus ferrugineus; assay: Pesticidal activity against adult Rhynchophorus ferrugineus (red palm weevil) assessed as time required for 100% mortality at 1.5 ml/l administered topically; format: functional
[25] = test system: Rhynchophorus ferrugineus; assay: Pesticidal activity against adult Rhynchophorus ferrugineus (red palm weevil) infested date palm tree assessed as disorientation of collected live stage larvae at 20 ml/4l of water applied through soil-drench irrigation measured after 3 weeks relative to control; format: functional, organism-based
[26] = test system: Rhynchophorus ferrugineus; assay: Pesticidal activity against Rhynchophorus ferrugineus (red palm weevil) cocoons assessed as time required for total mortality at 2.5 ml/l administered by dipping for 30 secs; format: functional
[27] = test system: Rhynchophorus ferrugineus; assay: Pesticidal activity against Rhynchophorus ferrugineus (red palm weevil) larvae assessed as mortality at 0.5 ppm, po at 90 hr post-treatment relative to control; format: functional
[28] = test system: Rhynchophorus ferrugineus; assay: Pesticidal activity against Rhynchophorus ferrugineus (red palm weevil) cocoon assessed as mortality at 20 ppm administered by dipping for 3 min measured at 18 hr post-treatment relative to control; format: functional
[29] = test system: Rhynchophorus ferrugineus; assay: Pesticidal activity against Rhynchophorus ferrugineus (red palm weevil) cocoon assessed as mortality at 0.5 ppm administered by dipping for 3 min measured at 48 hr post-treatment relative to control; format: functional
[30] = test system: Rhynchophorus ferrugineus; assay: Pesticidal activity against Rhynchophorus ferrugineus (red palm weevil) larvae infested date palm tree assessed as mortality of collected live stage at 20 ml/4l of water applied through soil-drench irrigation measured at 3 weeks post-treatment within 48 hr after emergence relative to control; format: functional
[31] = test system: Rhynchophorus ferrugineus; assay: Pesticidal activity against Rhynchophorus ferrugineus (red palm weevil) larvae infested date palm trees assessed as mortality at 2.5 ml/l applied through soil-drench irrigation 1 week after infestation measured on day 30 post-treatment relative to control; format: functional
[32] = test system: Rhynchophorus ferrugineus; assay: Pesticidal activity against adult Rhynchophorus ferrugineus (red palm weevil) assessed as time required for reversible knockdown at 1.5 ml/l administered topically; format: functional
[33] = test system: Rhynchophorus ferrugineus; assay: Pesticidal activity against adult Rhynchophorus ferrugineus (red palm weevil) assessed as mortality at 500 ppm administered topically at 18 hr post-treatment; format: functional
[34] = test system: Rhynchophorus ferrugineus; assay: Pesticidal activity against Rhynchophorus ferrugineus (red palm weevil) larvae assessed as mortality at 2 ppm, po at 24 hr post-treatment relative to control; format: functional
[35] = test system: Rhynchophorus ferrugineus; assay: Pesticidal activity against Rhynchophorus ferrugineus (red palm weevil) larvae assessed as mortality at 300 ppm administered topically at 36 hr post-treatment; format: functional
[36] = test system: Rhynchophorus ferrugineus; assay: Pesticidal activity against Rhynchophorus ferrugineus (red palm weevil) larvae assessed as mortality at 300 ppm administered topically at 72 hr post-treatment; format: functional
[37] = test system: Rhynchophorus ferrugineus; assay: Contact toxicity against Rhynchophorus ferrugineus (red palm weevil) adults assessed as time required for 50% reversible knockdown at 1.5 ml/l for 5 min; format: functional
[38] = test system: Rhynchophorus ferrugineus; assay: Pesticidal activity Rhynchophorus ferrugineus (red palm weevil) larvae assessed as time required after hatching for 100% mortality at 3.5 ml/l administered topically measured up to 14 days relative to control; format: functional
[39] = test system: Rhynchophorus ferrugineus; assay: Pesticidal activity against Rhynchophorus ferrugineus (red palm weevil) cocoon assessed as mortality at 2 ppm administered by dipping for 3 min measured at 90 hr post-treatment relative to control; format: functional
[40] = test system: Rhynchophorus ferrugineus; assay: Contact toxicity against Rhynchophorus ferrugineus (red palm weevil) adults assessed as time required for 100% reversible knockdown at 3.5 ml/l for 5 min; format: functional
[41] = test system: Rhynchophorus ferrugineus; assay: Pesticidal activity against adult Rhynchophorus ferrugineus (red palm weevil) assessed as mortality at 100 ppm administered topically at 18 hr post-treatment; format: functional

With `O=[N+]([O-])/N=C1\NCCN1Cc1ccc(Cl)nc1` [IMIDACLOPRID] the Activity [1] was 72.2%, the Activity [2] was 100% and the Activity [3] was 44.4%. For the same compound, the Activity [4] was 73.2%, the Activity [5] was 72.2% and the Time [6] was 1 days. The Activity [7] was 100%, the Activity [8] was 0% and the Activity [9] was 0%. The Activity [10] was 72.2%, the Time [11] was 4.2 days and the Activity [12] was 100%. For the same compound, the Activity [13] was 100%, the Activity [14] was 0% and the Time [15] was 1.1 days. The Activity [16] was 72.2%, the Activity [17] was 72.2% and the Time [18] was 4.2 days. It also gave an Activity [19] of 100%, an Activity [20] of 72.2% and a Time [21] of 7.2 days. For the same compound, the Activity [22] was 0%, the Activity [23] was 72.2% and the Time [24] was 11.5 days. The Activity [25] was “Active”, the Time [26] was 9.2 days and the Activity [27] was 66.7%. It also gave an Activity [28] of 0%, an Activity [29] of 0% and an Activity [30] of 100%. For the same compound, the Activity [31] was 94.4%, the Time [32] was 4 days and the Activity [33] was 66.7%. The Activity [34] was 100%, the Activity [35] was 0% and the Activity [36] was 38.9%. For the same compound, the Time [37] was 3.2 days, the Time [38] was 4 days and the Activity [39] was 72.2%. It also gave a Time [40] of 2.1 days and an Activity [41] of 0%.
